# Reference: paper PMC9235293 (European Journal of Medicinal Chemistry, 2022)
structure (smiles),measurement,value
CC(C)[C@H](NC(=O)OCc1ccccc1)C(=O)N[C@@H](Cc1cccs1)C(=O)N[C@H](C=O)C[C@@H]1CCNC1=O [MPI15],Solubility in DMSO,insoluble
